{"source": "ChEMBL document CHEMBL1201862", "about": "“PubChem BioAssay data set” (2004)", "key": {"[1]": {"target": "Peroxisome proliferator-activated receptor gamma/Nuclear receptor coactivator 1 (Homo sapiens, UniProt P37231)", "assay": "(§1) TR-FRET dose response biochemical High Throughput Screening assay for agonists of the steroid receptor coactivator 1 (SRC-1) recruitment by the peroxisome proliferator-activated receptor gamma (PPAR gamma): non-selective agonists. [Related pubchem assays (depositor defined):AID1300, AID1808, AID504735, AID631]", "format": "protein assay"}, "[2]": {"target": "Peroxisome proliferator-activated receptor gamma/Nuclear receptor coactivator 3 (Homo sapiens, UniProt P37231)", "sequence (P37231 whole entry)": "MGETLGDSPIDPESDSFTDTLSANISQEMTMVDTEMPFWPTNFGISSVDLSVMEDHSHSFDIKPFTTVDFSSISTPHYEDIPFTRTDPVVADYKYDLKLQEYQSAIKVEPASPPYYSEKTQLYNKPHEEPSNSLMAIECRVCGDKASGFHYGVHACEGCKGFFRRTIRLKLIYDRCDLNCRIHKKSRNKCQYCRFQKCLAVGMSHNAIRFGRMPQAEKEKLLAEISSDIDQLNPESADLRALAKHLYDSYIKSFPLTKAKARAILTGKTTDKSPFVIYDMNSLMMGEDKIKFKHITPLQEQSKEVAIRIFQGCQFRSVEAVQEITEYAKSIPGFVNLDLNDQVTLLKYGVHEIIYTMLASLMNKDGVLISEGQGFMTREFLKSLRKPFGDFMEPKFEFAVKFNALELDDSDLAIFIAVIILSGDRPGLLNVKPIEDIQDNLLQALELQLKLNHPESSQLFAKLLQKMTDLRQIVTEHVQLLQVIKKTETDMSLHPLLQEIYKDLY", "sequence (Q9Y6Q9 whole entry, further chain)": "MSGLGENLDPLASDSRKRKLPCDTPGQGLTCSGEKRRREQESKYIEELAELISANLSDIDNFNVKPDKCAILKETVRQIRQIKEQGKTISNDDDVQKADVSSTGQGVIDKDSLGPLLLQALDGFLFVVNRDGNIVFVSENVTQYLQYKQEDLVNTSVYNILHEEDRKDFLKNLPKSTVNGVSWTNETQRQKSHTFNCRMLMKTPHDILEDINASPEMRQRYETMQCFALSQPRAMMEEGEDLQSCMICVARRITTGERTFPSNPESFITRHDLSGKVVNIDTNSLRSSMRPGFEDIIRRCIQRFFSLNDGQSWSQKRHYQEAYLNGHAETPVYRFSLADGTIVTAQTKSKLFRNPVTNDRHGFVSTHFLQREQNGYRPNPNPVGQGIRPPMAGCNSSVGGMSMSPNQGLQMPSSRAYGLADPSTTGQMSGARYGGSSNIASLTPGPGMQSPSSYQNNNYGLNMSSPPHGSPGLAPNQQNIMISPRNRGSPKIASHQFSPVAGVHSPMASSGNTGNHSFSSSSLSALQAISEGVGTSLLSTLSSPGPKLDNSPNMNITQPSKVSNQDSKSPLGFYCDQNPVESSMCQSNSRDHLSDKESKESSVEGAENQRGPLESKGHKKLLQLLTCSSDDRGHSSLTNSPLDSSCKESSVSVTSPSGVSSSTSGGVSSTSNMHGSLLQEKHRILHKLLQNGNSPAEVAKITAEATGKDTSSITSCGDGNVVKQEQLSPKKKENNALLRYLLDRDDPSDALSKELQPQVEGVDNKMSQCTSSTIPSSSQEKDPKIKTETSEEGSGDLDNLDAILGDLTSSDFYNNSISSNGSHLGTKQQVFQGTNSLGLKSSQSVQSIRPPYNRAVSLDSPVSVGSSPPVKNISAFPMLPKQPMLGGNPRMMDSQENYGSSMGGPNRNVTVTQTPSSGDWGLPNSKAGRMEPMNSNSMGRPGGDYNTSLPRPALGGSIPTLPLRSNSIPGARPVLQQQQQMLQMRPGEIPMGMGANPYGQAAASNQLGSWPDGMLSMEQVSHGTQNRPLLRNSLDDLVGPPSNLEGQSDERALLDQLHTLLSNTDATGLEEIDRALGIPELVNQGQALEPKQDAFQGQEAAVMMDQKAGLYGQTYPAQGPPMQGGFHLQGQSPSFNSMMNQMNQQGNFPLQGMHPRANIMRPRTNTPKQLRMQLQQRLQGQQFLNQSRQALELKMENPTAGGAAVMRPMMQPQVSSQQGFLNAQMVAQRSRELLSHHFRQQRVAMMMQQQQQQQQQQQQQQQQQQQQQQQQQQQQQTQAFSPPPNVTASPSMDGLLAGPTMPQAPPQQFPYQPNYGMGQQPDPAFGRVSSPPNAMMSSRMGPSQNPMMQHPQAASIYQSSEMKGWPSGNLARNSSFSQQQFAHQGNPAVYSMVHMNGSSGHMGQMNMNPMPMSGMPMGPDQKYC", "assay": "as §1, with “3 (SRC-3)” for “1 (SRC-1)”, “assays: 1301 (Confirmation screen.), 1048 (Primary screen.)]” for “assays (depositor defined):AID1300, AID1808, AID504735, AID631]”", "format": "functional"}, "[3]": {"target": "Peroxisome proliferator-activated receptor gamma/Nuclear receptor coactivator 2 (Homo sapiens, UniProt P37231)", "sequence (P37231 whole entry)": "as the sequence (P37231 whole entry) above", "sequence (Q15596 whole entry, further chain)": "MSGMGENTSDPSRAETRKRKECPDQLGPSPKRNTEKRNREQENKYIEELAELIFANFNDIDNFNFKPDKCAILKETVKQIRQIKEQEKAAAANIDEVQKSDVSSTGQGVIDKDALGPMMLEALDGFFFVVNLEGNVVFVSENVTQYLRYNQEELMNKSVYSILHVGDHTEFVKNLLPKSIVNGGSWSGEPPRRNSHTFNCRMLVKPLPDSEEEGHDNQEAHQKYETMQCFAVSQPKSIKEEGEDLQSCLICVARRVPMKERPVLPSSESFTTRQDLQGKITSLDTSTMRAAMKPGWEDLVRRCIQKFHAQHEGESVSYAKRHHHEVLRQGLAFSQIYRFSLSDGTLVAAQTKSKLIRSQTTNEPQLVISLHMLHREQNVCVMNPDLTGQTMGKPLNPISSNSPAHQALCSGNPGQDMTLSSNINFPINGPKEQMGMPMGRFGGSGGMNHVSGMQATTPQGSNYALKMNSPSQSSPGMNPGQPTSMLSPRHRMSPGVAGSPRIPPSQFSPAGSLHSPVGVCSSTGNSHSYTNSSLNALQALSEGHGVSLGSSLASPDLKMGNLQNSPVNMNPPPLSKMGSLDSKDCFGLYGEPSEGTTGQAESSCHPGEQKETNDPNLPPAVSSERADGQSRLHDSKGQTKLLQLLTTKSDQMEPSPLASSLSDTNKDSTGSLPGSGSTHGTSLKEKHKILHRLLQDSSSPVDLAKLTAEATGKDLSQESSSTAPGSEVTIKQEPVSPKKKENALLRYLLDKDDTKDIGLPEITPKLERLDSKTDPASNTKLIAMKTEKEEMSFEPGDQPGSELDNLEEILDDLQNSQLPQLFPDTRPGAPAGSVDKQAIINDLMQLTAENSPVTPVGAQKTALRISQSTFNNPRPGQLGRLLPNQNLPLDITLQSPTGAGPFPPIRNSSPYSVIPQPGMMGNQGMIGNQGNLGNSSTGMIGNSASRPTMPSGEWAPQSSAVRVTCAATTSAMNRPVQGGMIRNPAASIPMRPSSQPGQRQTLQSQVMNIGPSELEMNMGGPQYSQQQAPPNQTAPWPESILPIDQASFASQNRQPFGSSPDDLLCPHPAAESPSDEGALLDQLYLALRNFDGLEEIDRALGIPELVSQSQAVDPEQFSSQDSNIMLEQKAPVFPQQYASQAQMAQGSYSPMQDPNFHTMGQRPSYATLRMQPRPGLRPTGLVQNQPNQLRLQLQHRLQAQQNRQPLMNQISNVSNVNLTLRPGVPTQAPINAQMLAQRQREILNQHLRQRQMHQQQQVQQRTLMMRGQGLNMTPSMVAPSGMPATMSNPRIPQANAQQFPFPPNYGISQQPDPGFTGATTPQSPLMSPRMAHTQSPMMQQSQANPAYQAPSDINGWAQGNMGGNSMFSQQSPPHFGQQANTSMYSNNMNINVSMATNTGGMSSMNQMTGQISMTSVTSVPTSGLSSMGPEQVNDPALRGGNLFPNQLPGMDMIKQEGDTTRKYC", "assay": "TR-FRET dose response biochemical High Throughput Screening assay for agonists of the steroid receptor coactivator 2 (SRC-2) recruitment by the peroxisome proliferator-activated receptor gamma (PPAR gamma): non-selective agonists. [Related pubchem assays: 1297, 1032 ]", "format": "functional"}, "[4]": {"assay": "Trypanosoma cruzi growth suppression in host cells – NIH3T3 host cells, beta-gal luminescence, confirmation (AID 2044)", "format": "functional, cell-based"}, "[5]": {"assay": "NIH3T3 cell viability loss – ATP luminescence, mouse fibroblasts, counter-screen, dose response (AID 2010)", "format": "functional, cell-based"}, "[6]": {"target": "T1, Short transient receptor potential channel 4 (Mus musculus, UniProt Q9QUQ5)", "T1 sequence (Q9QUQ5 whole entry)": "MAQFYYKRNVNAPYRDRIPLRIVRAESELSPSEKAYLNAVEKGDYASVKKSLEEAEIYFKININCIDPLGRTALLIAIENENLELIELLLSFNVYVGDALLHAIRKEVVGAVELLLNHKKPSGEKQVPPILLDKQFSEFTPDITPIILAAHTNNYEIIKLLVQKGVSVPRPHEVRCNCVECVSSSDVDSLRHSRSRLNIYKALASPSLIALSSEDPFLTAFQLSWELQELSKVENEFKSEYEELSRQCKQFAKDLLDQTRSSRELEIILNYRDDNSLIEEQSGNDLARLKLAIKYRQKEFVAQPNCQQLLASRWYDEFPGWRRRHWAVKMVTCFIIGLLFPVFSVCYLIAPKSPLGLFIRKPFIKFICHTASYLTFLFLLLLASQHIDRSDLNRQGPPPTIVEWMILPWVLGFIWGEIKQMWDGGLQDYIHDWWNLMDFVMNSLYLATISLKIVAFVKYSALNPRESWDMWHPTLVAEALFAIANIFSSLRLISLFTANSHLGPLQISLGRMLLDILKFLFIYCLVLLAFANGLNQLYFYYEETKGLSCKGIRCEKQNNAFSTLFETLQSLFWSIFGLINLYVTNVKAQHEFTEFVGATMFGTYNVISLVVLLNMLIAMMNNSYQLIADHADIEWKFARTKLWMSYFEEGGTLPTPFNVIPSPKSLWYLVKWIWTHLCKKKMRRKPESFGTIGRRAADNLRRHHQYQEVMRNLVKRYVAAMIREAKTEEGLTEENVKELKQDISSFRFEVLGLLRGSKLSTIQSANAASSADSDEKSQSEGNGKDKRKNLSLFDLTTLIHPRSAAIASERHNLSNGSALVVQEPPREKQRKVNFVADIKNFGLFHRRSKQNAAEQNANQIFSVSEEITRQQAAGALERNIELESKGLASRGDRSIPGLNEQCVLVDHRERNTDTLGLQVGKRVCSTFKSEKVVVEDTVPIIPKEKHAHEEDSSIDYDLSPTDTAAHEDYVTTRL", "assay": "block of DAMGO-driven TRPC4 calcium entry – cell-based, HEK293 TRPC4/mu-opioid, Fluo-4 calcium, dose response (AID 434942)", "format": "functional"}, "[7]": {"target": "Estrogen receptor beta (Homo sapiens, UniProt Q92731)", "sequence (Q92731 whole entry)": "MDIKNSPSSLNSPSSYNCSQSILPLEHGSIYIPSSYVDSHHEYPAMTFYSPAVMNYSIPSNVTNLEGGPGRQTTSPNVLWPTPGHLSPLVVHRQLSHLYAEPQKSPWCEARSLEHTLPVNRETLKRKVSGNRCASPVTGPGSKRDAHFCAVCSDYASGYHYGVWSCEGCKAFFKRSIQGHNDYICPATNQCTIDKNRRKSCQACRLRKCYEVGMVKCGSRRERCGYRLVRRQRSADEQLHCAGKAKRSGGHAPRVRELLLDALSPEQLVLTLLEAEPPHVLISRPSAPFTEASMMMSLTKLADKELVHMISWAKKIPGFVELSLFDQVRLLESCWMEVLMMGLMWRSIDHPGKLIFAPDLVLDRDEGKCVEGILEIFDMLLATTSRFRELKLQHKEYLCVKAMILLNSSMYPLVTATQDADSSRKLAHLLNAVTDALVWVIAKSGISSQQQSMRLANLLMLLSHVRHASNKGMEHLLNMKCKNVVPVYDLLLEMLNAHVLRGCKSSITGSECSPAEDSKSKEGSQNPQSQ"}, "[8]": {"target": "T2, Aminopeptidase N (Plasmodium falciparum FcB1/Columbia, UniProt O96935)", "T2 sequence (O96935 whole entry)": "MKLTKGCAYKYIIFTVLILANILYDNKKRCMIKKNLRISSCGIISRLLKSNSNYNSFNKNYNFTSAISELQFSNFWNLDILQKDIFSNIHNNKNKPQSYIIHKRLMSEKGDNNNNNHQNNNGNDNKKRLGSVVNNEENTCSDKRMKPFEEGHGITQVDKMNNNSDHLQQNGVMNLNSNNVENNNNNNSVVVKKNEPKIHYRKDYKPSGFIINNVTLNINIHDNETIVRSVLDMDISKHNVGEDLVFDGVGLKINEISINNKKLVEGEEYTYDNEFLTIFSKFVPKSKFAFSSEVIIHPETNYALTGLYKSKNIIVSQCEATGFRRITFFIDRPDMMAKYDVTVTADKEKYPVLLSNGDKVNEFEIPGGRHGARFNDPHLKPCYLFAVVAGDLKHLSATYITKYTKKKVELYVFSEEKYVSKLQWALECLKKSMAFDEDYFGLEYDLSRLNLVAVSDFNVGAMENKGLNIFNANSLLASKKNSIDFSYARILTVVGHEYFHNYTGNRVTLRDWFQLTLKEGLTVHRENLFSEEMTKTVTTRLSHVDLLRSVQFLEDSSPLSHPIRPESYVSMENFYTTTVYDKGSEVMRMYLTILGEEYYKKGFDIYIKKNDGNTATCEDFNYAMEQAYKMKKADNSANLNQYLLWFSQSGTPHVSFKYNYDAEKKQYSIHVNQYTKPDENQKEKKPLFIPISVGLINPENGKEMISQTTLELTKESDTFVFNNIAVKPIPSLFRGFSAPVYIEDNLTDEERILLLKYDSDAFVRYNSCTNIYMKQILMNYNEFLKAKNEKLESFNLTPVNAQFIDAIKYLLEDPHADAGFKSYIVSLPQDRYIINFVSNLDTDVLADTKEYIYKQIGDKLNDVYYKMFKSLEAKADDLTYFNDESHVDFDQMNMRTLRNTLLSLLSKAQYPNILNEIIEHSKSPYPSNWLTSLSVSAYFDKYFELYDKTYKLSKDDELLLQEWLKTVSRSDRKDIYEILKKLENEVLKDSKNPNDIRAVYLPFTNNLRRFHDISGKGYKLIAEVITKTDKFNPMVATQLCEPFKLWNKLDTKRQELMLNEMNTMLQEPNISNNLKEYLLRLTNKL", "assay": "malaria alanyl aminopeptidase activity blockers – biochemical, fluorogenic H-Leu-NHMec substrate, 1536-well (AID 1445)", "set-up": "species or system Plasmodium falciparum 3D7, 3D7"}, "[9]": {"target": "Cytochrome P450 2C19 (Homo sapiens, UniProt P33261)", "assay": "Cytochrome panel assay with activity outcomes. Panel member name: p450-cyp2c19 Compounds with AC50 equal or less than 10 uM are considered active", "format": "functional", "settings": "read-out: AC50"}, "[10]": {"target": "Cytochrome P450 2D6 (Homo sapiens, UniProt P10635)", "sequence (P10635 whole entry)": "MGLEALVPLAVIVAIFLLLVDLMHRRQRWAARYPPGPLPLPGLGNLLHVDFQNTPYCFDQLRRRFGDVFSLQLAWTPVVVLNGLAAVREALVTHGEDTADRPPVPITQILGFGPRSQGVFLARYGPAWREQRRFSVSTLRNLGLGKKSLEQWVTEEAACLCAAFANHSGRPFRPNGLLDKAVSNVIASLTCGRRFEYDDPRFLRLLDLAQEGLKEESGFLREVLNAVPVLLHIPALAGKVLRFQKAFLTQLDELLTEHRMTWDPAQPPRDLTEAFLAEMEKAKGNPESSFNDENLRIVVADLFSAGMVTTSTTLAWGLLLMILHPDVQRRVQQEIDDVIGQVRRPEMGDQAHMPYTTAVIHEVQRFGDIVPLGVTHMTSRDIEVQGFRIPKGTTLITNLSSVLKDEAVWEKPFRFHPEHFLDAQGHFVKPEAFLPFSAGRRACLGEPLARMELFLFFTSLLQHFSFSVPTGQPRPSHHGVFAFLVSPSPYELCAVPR"}, "[11]": {"target": "Cytochrome P450 3A4 (Homo sapiens, UniProt P08684)"}, "[12]": {"assay": "microbe, parasite or virus in culture", "format": "functional", "settings": "Mycobacterium tuberculosis"}, "[13]": {"assay": "Luminescence Cell-Based Dose Retest to Confirm Inhibitors of Cancer Stem Cells. [Related pubchem assays (depositor defined):AID2717, AID2721]", "format": "functional", "settings": "Homo sapiens"}, "[14]": {"target": "T3, Cytochrome P450 1A2 (Homo sapiens, UniProt P05177)", "T3 sequence (P05177 whole entry)": "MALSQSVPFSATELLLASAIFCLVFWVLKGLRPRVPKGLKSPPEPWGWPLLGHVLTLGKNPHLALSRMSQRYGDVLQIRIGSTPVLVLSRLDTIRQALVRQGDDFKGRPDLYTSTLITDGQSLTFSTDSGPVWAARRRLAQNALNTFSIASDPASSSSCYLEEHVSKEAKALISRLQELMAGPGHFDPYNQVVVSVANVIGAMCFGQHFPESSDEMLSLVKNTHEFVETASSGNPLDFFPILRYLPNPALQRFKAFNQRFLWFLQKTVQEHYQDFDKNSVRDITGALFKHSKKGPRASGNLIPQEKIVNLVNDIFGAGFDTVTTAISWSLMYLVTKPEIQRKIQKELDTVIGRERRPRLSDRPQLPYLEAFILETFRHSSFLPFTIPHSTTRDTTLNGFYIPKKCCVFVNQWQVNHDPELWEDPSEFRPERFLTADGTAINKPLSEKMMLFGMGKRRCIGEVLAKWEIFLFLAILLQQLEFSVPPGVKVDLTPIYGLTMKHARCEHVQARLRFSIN"}, "[15]": {"target": "Cytochrome P450 2C9 (Homo sapiens, UniProt P11712)"}}, "note": "The source made the active and inactive calls.", "data": [{"compound": "Cc1ccc2nc(NC(=S)NC(=O)c3ccco3)sc2c1", "values": [{"measurement": "EC50", "setting": "[1]", "result": "43 µM (inactive)"}, {"measurement": "EC50", "setting": "[2]", "result": "> 79.4 µM (not active)"}, {"measurement": "EC50", "setting": "[3]", "result": "51.8 µM (not active)"}]}, {"compound": "CCCCC(CC)C(=O)Nc1ncc([N+](=O)[O-])s1", "note": "(centres undefined)", "values": [{"measurement": "EC50", "setting": "[4]", "result": "1.29 µM (active)"}, {"measurement": "EC50", "setting": "[5]", "result": "> 60 µM (not active)"}, {"measurement": "EC50", "setting": "[6]", "result": "7.5 µM (active)"}]}, {"compound": "COc1ccc(C(C(=O)NC2CCCC2)N(C(=O)c2ccco2)c2ccc3c(c2)OCO3)cc1OC", "note": "(centres undefined)", "values": [{"measurement": "IC50", "setting": "[7]", "result": "> 50 µM (not active)"}]}, {"compound": "O=C(Cc1cc(=O)oc2cc(O)ccc12)NCC1CCC(C(=O)O)CC1", "note": "(centres undefined)", "values": [{"measurement": "IC50", "setting": "[8]", "result": "65.9 µM (active)"}]}, {"compound": "O=C(NCc1cccs1)C1CCN(S(=O)(=O)c2ccc(Cl)cc2)CC1", "values": [{"measurement": "IC50", "setting": "[8]", "result": "89.3 µM (active)"}]}, {"compound": "O=C(NCc1cccc(F)c1)C1CCN(C(=O)c2sccc2-n2cccc2)CC1", "values": [{"measurement": "IC50", "setting": "[8]", "result": "100 µM (active)"}]}, {"compound": "COc1ccc2cc(C#N)c(SCC(=O)NNC(=O)Cc3ccccc3)nc2c1", "values": [{"measurement": "EC50", "setting": "[1]", "result": "10.7 µM (inactive)"}, {"measurement": "EC50", "setting": "[2]", "result": "> 79.4 µM (not active)"}, {"measurement": "EC50", "setting": "[3]", "result": "11.1 µM (not active)"}, {"measurement": "AC50", "setting": "[9]", "result": "39.8 nM (inconclusive)"}, {"measurement": "AC50", "setting": "[10]", "result": "2.51 µM (inconclusive)"}, {"measurement": "AC50", "setting": "[11]", "result": "1.26 µM (inconclusive)"}]}, {"compound": "CCCCOC(=O)c1c(C)oc2ccc(NS(=O)(=O)c3ccc4c5c(cccc35)C(=O)N4)cc12", "values": [{"measurement": "CC50", "setting": "[12]", "result": "> 40 µM (active)"}, {"measurement": "IC50", "setting": "[7]", "result": "13.5 µM (active)"}, {"measurement": "AC50", "setting": "[13]", "result": "9.4 µM (active)"}]}, {"compound": "CCn1c(=O)cc(SCC(=O)NCc2ccc(C)cc2)c2ccccc21", "values": [{"measurement": "EC50", "setting": "[1]", "result": "> 79.4 µM (inactive)"}, {"measurement": "EC50", "setting": "[2]", "result": "> 79.4 µM (not active)"}, {"measurement": "EC50", "setting": "[3]", "result": "> 26.5 µM (not active)"}]}, {"compound": "c1ccc(Cn2c(CN3CCCC3)nc3ccccc32)cc1", "values": [{"measurement": "EC50", "setting": "[6]", "result": "2.11 µM (active)"}, {"measurement": "AC50", "setting": "[14]", "result": "14.1 µM (inconclusive)"}, {"measurement": "AC50", "setting": "[15]", "result": "35.5 µM (inconclusive)"}]}, {"compound": "O=C(CNS(=O)(=O)c1ccc2ccccc2c1)OCC(=O)c1ccc(Br)s1", "values": [{"measurement": "EC50", "setting": "[1]", "result": "8.72 µM (active)"}, {"measurement": "EC50", "setting": "[2]", "result": "36.5 µM (not active)"}, {"measurement": "EC50", "setting": "[3]", "result": "4.58 µM (active)"}]}, {"compound": "CC(C)Cn1c(-c2cccs2)nc2ccccc21", "values": [{"measurement": "IC50", "setting": "[7]", "result": "> 50 µM (not active)"}]}]}
